Measurements: PMC12390684 (Viruses, 2025)
Like-named read-outs stand apart in the source and are kept apart here.

Experiments:
[1] = biological target: T1, IN-GCN2 interaction (6xHis-IN / GST-GCN2) (UniProt P04585+Q9P2K8); assay: biochemical; type: binding, HIV-1 IN; human GCN2; details: for IC50: IC50, inhibition of IN-GCN2 interaction; for IN-GCN2 interaction (%): screen, single dose 100 µM, single replicate, residual AlphaLISA signal normalized to DMSO control
[2] = Cytotoxicity (CellTiter 96 AQueous); type: cell-based; details: human
[3] = tested on: HIV-1Laï; assay: microbe, parasite or virus in culture; type: cell-based; details: for EC50: 24 h infection, read-out: EC50
[4] = biological target: HIV-1 IN (Human immunodeficiency virus type 1 group M subtype B, UniProt P04585); details: cited from earlier work
[5] = biological target: T1, IN-GCN2 interaction (6xHis-IN / GST-GCN2); design: method as in earlier work; details: single dose 100 µM, previous data ref 26; cited from earlier work
[6] = tested on: P4 MAGI CCR5+ cells; assay: Cytotoxicity (CellTiter 96 AQueous); type: cell-based
[7] = SAR study, fresh dilutions from powder, at least three independent experiments
[8] = Human immunodeficiency virus 1, MAGI, 24 h
[9] = P4 MAGI CCR5+ cells, 24 h, read-out: CC50

T1 sequence (Q9P2K8 192-1024, other chains not shown): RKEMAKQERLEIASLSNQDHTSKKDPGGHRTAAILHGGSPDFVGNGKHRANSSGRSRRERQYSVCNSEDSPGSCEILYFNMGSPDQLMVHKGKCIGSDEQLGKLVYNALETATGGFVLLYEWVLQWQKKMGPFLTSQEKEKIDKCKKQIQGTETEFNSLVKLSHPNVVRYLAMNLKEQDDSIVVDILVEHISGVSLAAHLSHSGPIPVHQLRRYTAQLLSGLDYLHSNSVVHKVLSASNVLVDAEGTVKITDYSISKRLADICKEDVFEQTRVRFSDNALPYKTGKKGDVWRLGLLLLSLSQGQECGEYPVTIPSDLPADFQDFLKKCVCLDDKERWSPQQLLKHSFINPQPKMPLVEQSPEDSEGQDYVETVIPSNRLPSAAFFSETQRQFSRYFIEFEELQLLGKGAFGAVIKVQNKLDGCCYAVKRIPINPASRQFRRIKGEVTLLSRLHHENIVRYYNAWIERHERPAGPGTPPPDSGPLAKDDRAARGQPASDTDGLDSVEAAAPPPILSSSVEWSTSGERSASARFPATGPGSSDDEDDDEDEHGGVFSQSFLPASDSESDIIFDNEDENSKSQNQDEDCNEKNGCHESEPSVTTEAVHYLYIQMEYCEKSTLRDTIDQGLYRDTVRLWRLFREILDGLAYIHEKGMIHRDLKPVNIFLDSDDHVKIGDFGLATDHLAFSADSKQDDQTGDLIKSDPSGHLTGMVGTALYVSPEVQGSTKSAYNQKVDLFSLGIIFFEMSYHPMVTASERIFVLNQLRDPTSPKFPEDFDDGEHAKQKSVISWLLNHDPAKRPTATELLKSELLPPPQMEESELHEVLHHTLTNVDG

Structure (SMILES): COc1cc2c(cc1OC)-c1c3c(cc4c1[C@H](C2)N(C)CC4)OCO3 [Compound 3e]
- IC50 [1, 7]: 73 µM
- CC50 at 24 h [2]: > 5 µM
- EC50 [3, 8]: > 5 µM

Structure (SMILES): COc1cccc2c1C(=O)c1c(O)c3c(c(O)c1C2=O)CC(O)(C(C)=O)CC3OC1CC([N+](C)(C)C)C(O)C(C)O1 (centres unmarked) [Compound 1q]
- IC50 [1, 7]: 75 µM
- CC50 ([2]; 24 h, read-out: CC50): > 5 µM
- EC50 [3, 8]: > 5 µM

Structure (SMILES): COc1cccc2c1C(=O)c1c(O)c3c(c(O)c1C2=O)CC(O)(C(=O)CO)CC3OC1CC(N(C)C)C(O)C(C)O1 (centres unmarked) [Compound 1r]
- IC50 [1, 7]: > 100 µM
- CC50 at 24 h [2]: 0.225 µM
- inhibition of IN in vitro, in words [4]: micromolar inhibitors

Structure (SMILES): COc1ccc2ccccc2c1/C=C/C(=O)c1ccc(OCc2ccccc2)cc1O [Compound 2a]
- IC50 [1, 7]: 2.6 µM
- CC50 at 24 h [2, 9]: > 5 µM
- effect on HIV replication, in words [3]: pro-viral

Structure (SMILES): CCOC(=O)N1CCc2cc(OC)c(OC)c3c2c1cc1cc(OC)c(OC)cc13 [Compound 3d]
- IC50 [1, 7]: 71 µM
- CC50 at 24 h [2, 9]: > 5 µM
- effect on HIV replication, in words [3]: decrease in viral replication
- EC50 [3]: 1.02 µM
- EC50 [3, 8]: 1 µM
- SI (CC50/EC50) ([3]; selectivity index): >4.9

Structure (SMILES): CCC1(O)CC(OC2CC(N(C)C)C(O)C(C)O2)c2c(cc3c(c2O)C(=O)c2c(O)cccc2C3=O)C1C(=O)OC (centres unmarked) [Compound 1f]
- IC50 [1, 7]: 3.23 µM
- IN-GCN2 interaction (%) [1]: 43.80%
- CC50 ([2]; 24 h, read-out: CC50): 2.35 µM
- EC50 ([3]; Human immunodeficiency virus 1, MAGI): 1.39 µM

Structure (SMILES): COc1cccc2c1C(=O)c1c(O)c3c(c(O)c1C2=O)C[C@@](O)(C(=O)CO)C[C@@H]3O[C@H]1C[C@H](N2CCOCC2)[C@H](O)[C@H](C)O1 [NSC354646, reference compound]
- inhibition of IN in vitro, in words [4]: micromolar inhibitors

Structure (SMILES): O=C1c2c(O)ccc(O)c2C(=O)c2c(NCCCCO)ccc(NCCCCO)c21 [Compound 2i]
- IC50 [1, 7]: 11.2 µM
- CC50 at 24 h [2, 9]: > 5 µM
- EC50 [3, 8]: > 5 µM

Structure (SMILES): CCCCCC1=C/C(=C/c2[nH]c(-c3ccc[nH]3)cc2OC)N=C1C [NSC47147, prodigiosin]
- IC50 ([1]; plated compounds of the screen, dose-response (Figure 1B), n = 9): 0.88 µM
- IN-GCN2 interaction (%) [1]: 6.31%
- CC50 at 24 h ([2]; 24 h, read-out: CC50): 1.96 µM
- nontoxic concentrations at which a proviral effect was seen ([3]; Figure S5): < 200 nM

Structure (SMILES): CC(=O)[C@]1(O)Cc2c(O)c3c(c(O)c2[C@@H](O[C@H]2C[C@H](N)[C@H](O)[C@H](C)O2)C1)C(=O)c1ccccc1C3=O [NSC256439]
- inhibition of IN-GCN2 interaction [5]: around 70%

Structure (SMILES): COc1cc2c3c(c1O)-c1cc(N(Cc4ccccc4)Cc4ccccc4)ccc1CC3N(C)CC2 (centres unmarked) [NSC785176]
- CC50 ([6]; 24 h): > 5 µM

Structure (SMILES): CC(=O)Nc1ccc(Nc2ccc(NCCO)c3c2C(=O)c2c(O)ccc(O)c2C3=O)cc1 [Compound 2h]
- IC50 [1, 7]: 10.6 µM
- CC50 at 24 h [2, 9]: > 5 µM
- EC50 [3, 8]: > 5 µM

Structure (SMILES): COc1cccc2c1C(=O)c1c(O)c3c(c(O)c1C2=O)CC(O)(C(=O)CO)CC3OC1CC(N2CCOCC2C#N)C(O)C(C)O1 (centres unmarked) [Compound 1p]
- IC50 [1, 7]: 61.1 µM
- CC50 ([2]; 24 h, read-out: CC50): < 0.002 µM
- lowest dose used, at which compound was still toxic ([6]; human): about 2 nM
